The values below come from article PMC6934184, “Selective DNA-PKcs inhibition extends the therapeutic index of localized radiotherapy and chemotherapy” (The Journal of Clinical Investigation, 2019).

SMILES strings stand for the structures.

In this assay the target is T1, FGFR3 K650E (Homo sapiens, UniProt P22607, K650E).
T1 construct: purchased Thermo Fisher Scientific (Life Technologies) SelectScreen
The experiment in a line: SelectScreen Z'LYTE. The class given is biochemical. The procedure, abridged:
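SelectScreen broad panel; activity (Z'LYTE, Adapta) plus binding formats. ATP: Km app for CSF1R Z'LYTE; 10 for CAMK1 Adapta. Readout = % per kinase.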

Usually inhibition stands for the change of the read-out against control, counted positive when it falls.

T1 sequence (P22607 23-806 K650E): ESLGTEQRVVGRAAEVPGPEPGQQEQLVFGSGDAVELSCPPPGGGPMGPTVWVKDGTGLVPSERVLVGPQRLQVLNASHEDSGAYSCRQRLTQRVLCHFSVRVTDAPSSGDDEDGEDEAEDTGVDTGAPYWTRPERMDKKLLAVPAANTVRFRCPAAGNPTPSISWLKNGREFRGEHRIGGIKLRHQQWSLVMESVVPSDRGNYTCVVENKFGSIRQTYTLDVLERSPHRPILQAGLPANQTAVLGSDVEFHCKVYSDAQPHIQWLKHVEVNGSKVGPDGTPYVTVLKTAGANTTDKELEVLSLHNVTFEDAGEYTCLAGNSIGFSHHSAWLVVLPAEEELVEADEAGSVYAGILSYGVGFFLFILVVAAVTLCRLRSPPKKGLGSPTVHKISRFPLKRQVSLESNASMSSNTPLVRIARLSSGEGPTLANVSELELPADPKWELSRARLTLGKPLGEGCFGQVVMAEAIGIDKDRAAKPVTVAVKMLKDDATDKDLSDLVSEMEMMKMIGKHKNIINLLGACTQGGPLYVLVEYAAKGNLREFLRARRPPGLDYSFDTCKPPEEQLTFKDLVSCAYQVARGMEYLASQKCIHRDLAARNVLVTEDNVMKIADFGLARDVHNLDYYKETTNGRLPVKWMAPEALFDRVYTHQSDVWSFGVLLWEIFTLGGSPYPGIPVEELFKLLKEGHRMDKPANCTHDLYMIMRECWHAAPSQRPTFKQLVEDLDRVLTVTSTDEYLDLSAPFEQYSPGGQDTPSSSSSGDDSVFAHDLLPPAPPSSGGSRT

Take `CN(C(=O)CN1CCOCC1)c1ccc2sc3c(-c4cccc5c(=O)cc(N6CC7CCC(C6)O7)oc45)cccc3c2c1` [NU5455]: 1 µM produced 7.9% inhibition.
